The test system of assay [1] is LTB4 biosynthesis in human polymorphonuclear leukocytes (PMNL). Briefly: Inhibition of LTB4 biosynthesis in human PMNL (calcium ionophore A23187-induced). To be noted: for IC50: A23187 8.3 μM, 15 min preincubation; for Human PMNL, inhibition of LTB4 biosynthesis, % @ 1.6: @ 1.6 (μM). The assay is classed as cell-based. Here is the method: (§1) Inhibition of leukotriene biosynthesis by representative compounds of the present invention was evaluated in assays involving calcium ionophore-induced LTB4 biosynthesis expressed by human polymorphonuclear leukocytes (PMNL) or human whole blood. Human PMNL were isolated from heparinized (20 USP units/mL) venous blood using Ficoll-Hypaque Mono-Poly Resolving Medium. Human PMNL suspensions (5×10^6 cells/250 μL) were preincubated with test compounds or vehicle for 15 min at 37° C. followed by calcium ionophore A23187 challenge (final concentration of 8.3 μM) and the reaction terminated after 10 rain by adding two volumes of methanol containing prostaglandin B2 as an internal recovery standard. The methanol extracts were analyzed for LTB4 content by HPLC or radioimmunoassay.

In assay [2] the test system is LTB4 biosynthesis in human whole blood. Briefly: Inhibition of LTB4 biosynthesis in human whole blood (calcium ionophore A23187-induced). The assay is classed as cell-based. Conditions: human heparinized whole blood, A23187, 30 min at 37° C. How it is done: as §1
The assay using human heparinized whole blood was incubated for 30 minutes at 37° C. after adding […] of ionophore A23187. The plasma layer was obtained by centrifugation and deproteinized by the addition of four volumes of methanol. The methanol extract was analyzed for LTB4 by HPLC or radioimmunoassay.

Another assay has as its system leukotriene biosynthesis. Briefly: Inhibition of leukotriene biosynthesis in vivo, rat peritoneal anaphylaxis model. Conditions: one hour prior to antigen challenge. Here is the method: Inhibition of the biosynthesis of leukotrienes in vivo after oral administration of compound was determined using a rat peritoneal anaphylaxis model in a similar manner as that described by Young and coworkers (Young, P. R.; Dyer, R. D.; Carter, G. W. Fed. Proc., Fed. Am. Soc. Exp. Biol. 1985, 44, 1185). In this model rats were injected intraperitoneally (ip) with rabbit antibody to bovine serum albumin (BSA) and three hours later injected ip with BSA to induce an antigen-antibody response. Rats were sacrificed 15 minutes after this challenge and the peritoneal fluids were collected and analyzed for leukotriene levels. Test compounds were administered by garage one hour prior to the antigen challenge. Percent inhibition values were determined by comparing the treatment group to the mean of the control group. Compounds of this invention are orally effective in preventing the in vivo bio-synthesis of leukotrienes as illustrated for representative examples shown in Table 2.

Where a name gives a salt, the structure may show the parent alone.

As a reminder, the IC50 is the concentration that inhibits the measured activity by half. As for `CC(C)c1ccc2c(c1)c(SC(C)(C)C)c([C@@H]1C[C@H]1CN(O)C(N)=O)n2Cc1ccc(Cl)cc1` (relative stereo) [Example 14, N-hydroxy-N-[trans-2-(1-(4-chlorophenylmethyl)-3-(1,1-dimethylethylthio)-5-(1-methylethyl)indol-2-yl)cyclopropyl]methylurea], the “Human PMNL, inhibition of LTB4 biosynthesis, % @ 0.78” value in assay [1] (@ 0.78 (μM)) turned out to be 40%. Further, in assay [2] (Homo sapiens, 0.5 h), the IC50 came to 2500 nM.
Consider `CC(C)c1ccc2c(c1)c(SC(C)(C)C)c([C@@H]1C[C@H]1CNC(N)=O)n2Cc1ccc(Cl)cc1` (relative stereo) [Example 23, N-[trans-2-(1-(4-chlorophenylmethyl)-3-(1,1-dimethylethylthio)-5-(1-methylethyl)indol-2-yl)cyclopropyl]methyl urea], for which the IC50 was found to be 400 nM in assay [1] and 2700 nM in assay [2] (Homo sapiens, 0.5 h).
In the case of `CC(C)c1ccc2c(c1)c(SC(C)(C)C)c(CC(C)(C)NC(=O)N(C)O)n2Cc1ccc(Cl)cc1` [Example 1], the IC50 in assay [1] is 150 nM; in assay [2] (Homo sapiens, 0.5 h) it was 1300 nM.
As to `CC(C)c1ccc2c(c1)c(SC(C)(C)C)c(CC(C)(C)C=NO)n2Cc1ccc(Cl)cc1` [Example 2, 2,2-dimethyl-3-[1-(4-chlorophenylmethyl)-3-(1,1-dimethylethylthio)-5-(1-methylethyl)indol-2-yl]propionaldehyde oxime], the half-inhibitory concentration (IC50) in assay [1] amounted to 270 nM; in assay [2] (Homo sapiens, 0.5 h), 2200 nM. In addition, the “Percent Leukotriene inhibition at 100 μmol/kg oral dose” value (“Percent Leukotriene inhibition” for short) in the assay with leukotriene biosynthesis was 46%.
The like results for `CC(C)c1ccc2c(c1)c(SC(C)(C)C)c(CC(C)(C)CN(O)C(N)=O)n2Cc1ccc(Cl)cc1` [Example 3, N-hydroxy-N-2,2-dimethyl-3-[(1-(4-chlorophenylmethyl)-3-(1,1-dimethylethylthio)-5-(1-methylethyl))indol-2-yl]propyl urea] were, in that order, 170 nM, 1600 nM and 68%.
On to `CC(C)c1ccc2c(c1)c(SC(C)(C)C)c(CCNC(=O)N(C)O)n2Cc1ccc(Cl)cc1` [Example 4, N'-hydroxy-N'methyl-N-2-[(1-(4-chlorophenylmethyl)-3-(1,1-dimethylethylthio)-5-(1-methylethyl))indol-2-yl]ethyl urea], for which the IC50 in assay [1] stood at 570 nM; in assay [2] (Homo sapiens, 0.5 h), 6700 nM.
`CC(C)c1ccc2c(c1)c(SC(C)(C)C)c(CC(C)(C)CNC(N)=O)n2Cc1ccc(Cl)cc1` [Example 5, N-2,2-dimethyl-3-[(1-(4-chlorophenylmethyl)-3-(1,1-dimethylethyl-thio)-5-(1-methylethyl))indol-2-yl]propyl urea]: the IC50 stood at 180 nM in assay [1] and 710 nM in assay [2] (Homo sapiens, 0.5 h). The “Percent Leukotriene inhibition” value with leukotriene biosynthesis turned out to be 86%.
Regarding `CC(C)c1ccc2c(c1)c(SC(C)(C)C)c(CC(C)(C)C(=O)NCCNC(=O)N(C)O)n2Cc1ccc(Cl)cc1` [Example 6, N'-hydroxy-N'-methyl-N-2-[3-(1-(4-chlorophenylmethyl)-3-(1,1-dimethylethylthio)-5-(1-methylethyl)indol-2-yl)-2,2-dimethylpropionylamino]ethyl urea], the IC50 in assay [1] came to 150 nM; in assay [2] (Homo sapiens, 0.5 h), 1200 nM. The “Percent Leukotriene inhibition” value with leukotriene biosynthesis came to 86%.
Take `CC(C)c1ccc2c(c1)c(SC(C)(C)C)c(CC(C)(C)C(=O)NCCC(=O)O)n2Cc1ccc(Cl)cc1` [Example 6.2]: the 50% inhibitory concentration (IC50) was 310 nM in assay [1] and 1400 nM in assay [2] (Homo sapiens, 0.5 h).
The like results for `CC(C)c1ccc2c(c1)c(SC(C)(C)C)c(CC(C)(C)CNCCCO)n2Cc1ccc(Cl)cc1` [Example 7, 1-(4-chlorophenylmethyl)-2-[2,2-dimethyl-3-((3-hydroxypropyl)amino)propyl]-3-(1,1-dimethylethylthio)-5-(1-methylethyl)indole] were, in that order, 4200 nM and 6900 nM.
For `CC(C)c1ccc2c(c1)c(SC(C)(C)C)c(CC(C)(C)NC(N)=O)n2Cc1ccc(Cl)cc1` [Example 8, N-2-[2-methyl-3-(1-(4-chlorophenylmethyl)-3-(1,1-dimethylethylthio)-5-(1-methylethyl)indol-2-yl)]propyl urea], the IC50 came to 400 nM in assay [1] and 5200 nM in assay [2] (Homo sapiens, 0.5 h).
On to `CCOC(=O)CCNC(=O)NC(C)(C)Cc1c(SC(C)(C)C)c2cc(C(C)C)ccc2n1Cc1ccc(Cl)cc1` [Example 9], for which the “Human PMNL, inhibition of LTB4 biosynthesis, % @ 1.6” value in assay [1] came out at 77%. Also, the IC50 in assay [2] (Homo sapiens, 0.5 h) turned out to be 5600 nM.
The like results for `CC(C)c1ccc2c(c1)c(SC(C)(C)C)c(CC(C)(C)NC(=O)NCCC(=O)O)n2Cc1ccc(Cl)cc1` [Example 10] were, in that order, 70% and 2500 nM.
As for `CCOC(=O)C(C)(C)Cc1c(C(=O)CCNC(=O)N(C)O)c2cc(C(C)C)ccc2n1Cc1ccc(Cl)cc1` [Example 11, N'-hydroxy-N'-methyl-N-'[1-(4-chlorophenylmethyl)-5-(1-methylethyl)-2-((2-methyl-2-ethoxycarbonyl)propyl)indol-2-yl]-3-oxopropylurea], the IC50 in assay [1] came out at 1500 nM; in assay [2] (0.5 h), 6900 nM.
Turning to `CC(C)c1ccc2c(c1)c(SC(C)(C)C)c(CC(C)(C)C=NNC(=N)N)n2Cc1ccc(Cl)cc1` [Example 12, 1-(4-chlorophenylmethyl)-3-(1,1-dimethylethylthio)-2-[3-(2,2-dimethyl-1-guanidinylimino)propyl]-(1-methylethyl)indole], the “Human PMNL, inhibition of LTB4 biosynthesis, % @ 3.1” value in assay [1] (@ 3.1 (μM)) is 100%. Besides, the IC50 in assay [2] (Homo sapiens, 0.5 h) amounted to 1300 nM.
`CC(C)c1ccc2c(c1)c(SC(C)(C)C)c(CC(C)(C)NC(=O)NCCC(=O)O)n2Cc1ccc(Cl)cc1` [Example 13, 3-[3-(1-(4-chlorophenylmethyl)-3-(1,1dimethylethylthio)-5-(1-methylethyl)indol-2-yl)-2-aminocarbonylamino-2-methylpropyl]propanoic acid, sodium salt]: the IC50 in assay [2] (sodium salt) turned out to be 3000 nM.
As for `CC(C)c1ccc2c(c1)c(SC(C)(C)C)c(CC(C)(C)C(=O)O)n2Cc1ccncc1` [Example 15, 3-[3-(1,1-dimethylethylthio)-5-(1-methylethyl)-1-(4-pyridinylmethyl)indol-2-yl]-2,2-dimethylpropanoic acid], the concentration for half-maximal inhibition (IC50) in assay [1] came to 90 nM; in assay [2] (Homo sapiens, 0.5 h), 900 nM.
For the molecule `CC(C)c1ccc2c(c1)c(SC(C)(C)C)c(CC(C)(C)C(=O)O)n2Cc1cccs1` [Example 16], the 50% inhibitory concentration (IC50) in assay [2] (Homo sapiens, 0.5 h) came out at 5500 nM.
`CC(C)c1ccc2c(c1)c(SC(C)(C)C)c(CC(C)(C)C=NOCC(=O)O)n2Cc1ccc(Cl)cc1` [Example 20]: in assay [2] (Homo sapiens, 0.5 h), the IC50 stood at 680 nM. For the same molecule, in the assay on leukotriene biosynthesis, the “Percent Leukotriene inhibition” value is 99%.
On to `CC(C)c1ccc2c(c1)c(SC(C)(C)C)c(CC(C)(C)CN)n2Cc1ccc(Cl)cc1` [Example 21], for which the IC50 in assay [2] (Homo sapiens, 0.5 h) came out at 1100 nM.
`CC(=O)NCC(C)(C)Cc1c(SC(C)(C)C)c2cc(C(C)C)ccc2n1Cc1ccc(Cl)cc1` [Example 22]: the IC50 in assay [2] (Homo sapiens, 0.5 h) is 2100 nM.

These data come from patent US5459150A, “Indole derivatives which inhibit leukotriene biosynthesis” (Abbott Laboratories, priority 1993, dated 1995).
